Experimental data reported in US20230233489A1 (priority 2020, published 2023).
Where “and” joins values, the source holds several entries; their conditions need not be identical. Equal values may be shown once. Read-outs that look alike come from different tables or passages of the source.

Experiments:
RAC1 = settings: IBD patients; cited from earlier work
SARS-CoV-2 [1] = settings: human, in vivo
SARS-CoV-2 [2] = settings: human, in vivo; remark: listed apart in the source
MERS-CoV = settings: read-out: 50% effective concentration [EC50]; cited from earlier work
Ebola virus [3] = settings: mouse, in vivo; cited from earlier work
[4] = cited from earlier work
[5] = in vivo; cited from earlier work
SARS-CoV-1 = settings: cited from earlier work
Ebola virus [6] = settings: read-out: 50% inhibitive concentration [IC50]; cited from earlier work
SARS-CoV-2 [7] = settings: cited from earlier work

## S=c1nc[nH]c2nc[nH]c12 [Mercaptopurine, mercaptopurine]
RAC1
  RAC1 expression: lower RAC1 expression

## COc1ccccc1OCCNCC(O)COc1cccc2[nH]c3ccccc3c12 (centres unmarked) [carvedilol]
SARS-CoV-2 [1]
  odds ratio of a positive laboratory test result for SARS-CoV-2: 0.74 and 0.90 and 0.73

## COc1ccc2[nH]cc(CCNC(C)=O)c2c1 [melatonin]
SARS-CoV-2 [1]
  odds ratio of SARS-CoV-2 positive test: 0.52 and 0.61 and 0.80
SARS-CoV-2 [2]
  odds ratio of a positive laboratory test result for SARS-CoV-2: 0.36 and 0.35 and 0.56 and 0.46

## CN(C)CCOc1ccc(/C(=C(/CCCl)c2ccccc2)c2ccccc2)cc1 [toremifene]
MERS-CoV
  EC50: 12.9 µM
Ebola virus [3]
  survival rate: significantly improved survival rate
[4]
  bound to plasma protein: 99%
[5]
  bioavailability: good
SARS-CoV-1
  EC50: 12 µM
Ebola virus [6]
  IC50: ~1 µM
SARS-CoV-2 [7]
  IC50: 3.58 µM
